Assays:
Type in all cases: in vivo
[1] = tested on: barnyardgrass (Echinochloa crus-galli); assay: Test A preemergence, directed soil spray, visual injury rating; conditions: Echinochloa crus-galli, pre-emergence, 240 h, 0 is no effect, 100 is complete control, read-out: Plant response rating (0 to 100 scale), Barnyardgrass; for pest or weed control at 125 g/ha: 125 g ai/ha
Outline: (§1)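 Compounds in a surfactant-containing solvent were applied as a directed soil spray preemergence, or postemergence to plants 2-10 cm tall at the one- to two-leaf stage, in loam-sand blend. After about 10 d in the greenhouse, injury was rated visually against untreated controls on a 0-100 scale (100 = complete control).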

kochia (Kochia scoparia) [2] = assay: as above; conditions: Bassia scoparia, pre-emergence, 240 h, 0 is no effect, 100 is complete control, read-out: Plant response rating (0 to 100 scale), Kochia; for pest or weed control at 125 g/ha: 125 g ai/ha
Outline: as §1

[3] = tested on: ragweed (common ragweed, Ambrosia elatior); assay: as above; conditions: Ambrosia artemisiifolia, pre-emergence, 240 h, 0 is no effect, 100 is complete control, read-out: Plant response rating (0 to 100 scale), Ragweed; for pest or weed control at 125 g/ha: 125 g ai/ha
Outline: as §1

[4] = tested on: ryegrass, It. (Italian ryegrass, Lolium multiflorum); assay: as above; conditions: Lolium multiflorum, pre-emergence, 240 h, 0 is no effect, 100 is complete control, read-out: Plant response rating (0 to 100 scale), Ryegrass, It.; for pest or weed control at 125 g/ha: 125 g ai/ha
Outline: as §1

[5] = tested on: pigweed (Amaranthus retroflexus); assay: as above; conditions: Amaranthus retroflexus, pre-emergence, 240 h, 0 is no effect, 100 is complete control, read-out: Plant response rating (0 to 100 scale), Pigweed; for pest or weed control at 125 g/ha: 125 g ai/ha
Outline: as §1

[6] = tested on: foxtail, giant (giant foxtail, Setaria faberii); assay: as above; conditions: Setaria faberi, pre-emergence, 240 h, 0 is no effect, 100 is complete control, read-out: Plant response rating (0 to 100 scale), Foxtail, Giant; for pest or weed control at 125 g/ha: 125 g ai/ha
Outline: as §1

[7] = tested on: barnyardgrass (Echinochloa crus-galli); assay: Test A postemergence application, visual injury rating; conditions: Echinochloa crus-galli, post-emergence, 240 h, 0 to 100 scale, 0 no effect, 100 complete control, read-out: Barnyardgrass plant response rating; for pest or weed control at 125 g/ha: 125 g ai/ha
Outline: as §1

kochia (Kochia scoparia) [8] = assay: as above; conditions: for pest or weed control at 125 g/ha: 125 g ai/ha
Outline: as §1

[9] = tested on: wheat (Triticum aestivum); assay: as above; conditions: for plant injury at 125 g/ha: 125 g ai/ha
Outline: as §1

[10] = tested on: blackgrass (Alopecurus myosuroides); assay: as above; conditions: Alopecurus myosuroides, post-emergence, 240 h, 0 to 100 scale, 0 no effect, 100 complete control, read-out: Blackgrass plant response rating; for pest or weed control at 125 g/ha: 125 g ai/ha
Outline: as §1

[11] = tested on: ragweed (common ragweed, Ambrosia elatior); assay: as above; conditions: for pest or weed control at 125 g/ha: 125 g ai/ha
Outline: as §1

corn (Zea mays) = assay: as above; conditions: for plant injury at 125 g/ha: 125 g ai/ha
Outline: as §1

[12] = tested on: ryegrass, It. (Italian ryegrass, Lolium multiflorum); assay: as above; conditions: for pest or weed control at 125 g/ha: 125 g ai/ha
Outline: as §1

[13] = tested on: pigweed (Amaranthus retroflexus); assay: as above; conditions: for pest or weed control at 125 g/ha: 125 g ai/ha
Outline: as §1

[14] = tested on: galium (catchweed bedstraw, Galium aparine); assay: as above; conditions: for pest or weed control at 125 g/ha: 125 g ai/ha
Outline: as §1

[15] = tested on: foxtail, giant (giant foxtail, Setaria faberii); assay: as above; conditions: for pest or weed control at 125 g/ha: 125 g ai/ha
Outline: as §1

[16] = tested on: barnyardgrass (Echinochloa crus-galli); assay: Test B flooded paddy test, visual rating; conditions: Echinochloa crus-galli, 360 h; Flood, 250 g ai/ha, applied to paddy water, rated after 13 to 15 d; read-out: Barnyardgrass plant response rating (0 to 100 scale, 0 is no effect, 100 is complete control)
Outline: (§2)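 Plants grown to the 2-leaf stage. At treatment, pots were flooded to 3 cm above the soil, compound was applied directly to the paddy water, and that depth was held throughout. After 13 to 15 d in the greenhouse, response was rated visually against controls on a 0 (no effect) to 100 (complete control) scale.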

rice (Oryza sativa) = assay: Test B flooded paddy test, visual rating; conditions: Oryza sativa, 360 h; Flood, 250 g ai/ha, applied to paddy water, rated after 13 to 15 d; read-out: Rice plant response rating (0 to 100 scale, 0 is no effect, 100 is complete control)
Outline: as §2

[17] = tested on: ducksalad (Heteranthera limosa); assay: Test B flooded paddy test, visual rating; conditions: Heteranthera limosa, 360 h; Flood, 250 g ai/ha, applied to paddy water, rated after 13 to 15 d; read-out: Ducksalad plant response rating (0 to 100 scale, 0 is no effect, 100 is complete control)
Outline: as §2

[18] = 31 g ai/ha, 0 is no effect, 100 is complete control
[19] = Bassia scoparia, post-emergence, 240 h, 0 to 100 scale, 0 no effect, 100 complete control, read-out: Kochia plant response rating
[20] = Triticum aestivum, post-emergence, 240 h, 0 to 100 scale, 0 no effect, 100 complete control, read-out: Wheat plant response rating
[21] = Ambrosia artemisiifolia, post-emergence, 240 h, 0 to 100 scale, 0 no effect, 100 complete control, read-out: Ragweed plant response rating
[22] = Zea mays, post-emergence, 240 h, 0 to 100 scale, 0 no effect, 100 complete control, read-out: Corn plant response rating
[23] = Lolium multiflorum, post-emergence, 240 h, 0 to 100 scale, 0 no effect, 100 complete control, read-out: Ryegrass, It. plant response rating
[24] = Amaranthus retroflexus, post-emergence, 240 h, 0 to 100 scale, 0 no effect, 100 complete control, read-out: Pigweed plant response rating
[25] = Galium, post-emergence, 240 h, 0 to 100 scale, 0 no effect, 100 complete control, read-out: Galium plant response rating
[26] = Setaria faberi, post-emergence, 240 h, 0 to 100 scale, 0 no effect, 100 complete control, read-out: Foxtail, Giant plant response rating

Cn1nc(Cl)c(O)c(-c2nccc3ccccc23)c1=O [Compound 67, 6-chloro-5-hydroxy-4-(1-isoquinolinyl)-2-methyl-3(2H)-pyridazinone]
pest or weed control at 31 g/ha ([1]; 31 g ai/ha): 0%
pest or weed control at 125 g/ha [1]: 0%
pest or weed control at 31 g/ha (kochia (Kochia scoparia) [2]; 31 g ai/ha): 0%
pest or weed control at 125 g/ha (kochia (Kochia scoparia) [2]): 0%
pest or weed control at 31 g/ha ([3]; 31 g ai/ha): 0%
pest or weed control at 125 g/ha [3]: 0%
pest or weed control at 31 g/ha ([4]; 31 g ai/ha): 10%
pest or weed control at 125 g/ha [4]: 50%
pest or weed control at 31 g/ha ([5]; 31 g ai/ha): 10%
pest or weed control at 125 g/ha [5]: 20%
pest or weed control at 31 g/ha ([6]; 31 g ai/ha): 0%
pest or weed control at 125 g/ha [6]: 0%
pest or weed control at 31 g/ha ([7]; 31 g ai/ha): 0%
pest or weed control at 125 g/ha [7]: 0%
Plant response rating (0 to 100 scale), Kochia (kochia (Kochia scoparia) [8]; [18]): 0
pest or weed control at 125 g/ha (kochia (Kochia scoparia) [8]; [19]): 40%
Plant response rating (0 to 100 scale), Wheat [9, 18]: 0
plant injury at 125 g/ha [9, 20]: 0%
pest or weed control at 31 g/ha ([10]; 31 g ai/ha): 0%
pest or weed control at 125 g/ha [10]: 0%
Plant response rating (0 to 100 scale), Ragweed [11, 18]: 0
pest or weed control at 125 g/ha [11, 21]: 10%
Plant response rating (0 to 100 scale), Corn (corn (Zea mays); [18]): 0
plant injury at 125 g/ha (corn (Zea mays); [22]): 0%
Plant response rating (0 to 100 scale), Ryegrass, It. [12, 18]: 20
pest or weed control at 125 g/ha [12, 23]: 60%
Plant response rating (0 to 100 scale), Pigweed [13, 18]: 40
pest or weed control at 125 g/ha [13, 24]: 50%
Plant response rating (0 to 100 scale), Galium [14, 18]: 20
pest or weed control at 125 g/ha [14, 25]: 40%
Plant response rating (0 to 100 scale), Foxtail, Giant [15, 18]: 0
pest or weed control at 125 g/ha [15, 26]: 0%
pest or weed control at 250 g/ha [16]: 0%
plant injury at 250 g/ha (rice (Oryza sativa)): 0%
pest or weed control at 250 g/ha [17]: 0%

Cc1ccc2sccc2c1-c1c(O)c(C)nn(C)c1=O [Compound 29, 5-hydroxy-2,6-dimethyl-4-(5-methylbenzo[b]thien-4-yl)-3(2H)-pyridazinone]
pest or weed control at 125 g/ha [1]: 10%
pest or weed control at 500 g/ha ([1]; 500 g ai/ha): 90%
pest or weed control at 125 g/ha (kochia (Kochia scoparia) [2]): 20%
pest or weed control at 500 g/ha (kochia (Kochia scoparia) [2]; 500 g ai/ha): 90%
pest or weed control at 125 g/ha [3]: 30%
pest or weed control at 500 g/ha ([3]; 500 g ai/ha): 90%
pest or weed control at 125 g/ha [4]: 90%
pest or weed control at 500 g/ha ([4]; 500 g ai/ha): 100%
pest or weed control at 125 g/ha [5]: 40%
pest or weed control at 500 g/ha ([5]; 500 g ai/ha): 100%
pest or weed control at 125 g/ha [6]: 10%
pest or weed control at 500 g/ha ([6]; 500 g ai/ha): 90%
pest or weed control at 125 g/ha [7]: 20%
pest or weed control at 500 g/ha ([7]; 500 g ai/ha): 70%
pest or weed control at 125 g/ha (kochia (Kochia scoparia) [8]; [19]): 90%
pest or weed control at 500 g/ha (kochia (Kochia scoparia) [8]; Bassia scoparia, post-emergence, 240 h, 500 g ai/ha, 0 to 100 scale, 0 no effect, 100 complete control, read-out: Kochia plant response rating): 100%
plant injury at 125 g/ha [9, 20]: 20%
plant injury at 500 g/ha ([9]; Triticum aestivum, post-emergence, 240 h, 500 g ai/ha, 0 to 100 scale, 0 no effect, 100 complete control, read-out: Wheat plant response rating): 30%
pest or weed control at 125 g/ha [10]: 70%
pest or weed control at 500 g/ha ([10]; 500 g ai/ha): 80%
pest or weed control at 125 g/ha [11, 21]: 80%
pest or weed control at 500 g/ha ([11]; Ambrosia artemisiifolia, post-emergence, 240 h, 500 g ai/ha, 0 to 100 scale, 0 no effect, 100 complete control, read-out: Ragweed plant response rating): 80%
plant injury at 125 g/ha (corn (Zea mays); [22]): 20%
plant injury at 500 g/ha (corn (Zea mays); Zea mays, post-emergence, 240 h, 500 g ai/ha, 0 to 100 scale, 0 no effect, 100 complete control, read-out: Corn plant response rating): 50%
pest or weed control at 125 g/ha [12, 23]: 100%
pest or weed control at 500 g/ha ([12]; Lolium multiflorum, post-emergence, 240 h, 500 g ai/ha, 0 to 100 scale, 0 no effect, 100 complete control, read-out: Ryegrass, It. plant response rating): 90%
pest or weed control at 125 g/ha [13, 24]: 90%
pest or weed control at 500 g/ha ([13]; Amaranthus retroflexus, post-emergence, 240 h, 500 g ai/ha, 0 to 100 scale, 0 no effect, 100 complete control, read-out: Pigweed plant response rating): 100%
pest or weed control at 125 g/ha [14, 25]: 90%
pest or weed control at 500 g/ha ([14]; Galium, post-emergence, 240 h, 500 g ai/ha, 0 to 100 scale, 0 no effect, 100 complete control, read-out: Galium plant response rating): 100%
pest or weed control at 125 g/ha [15, 26]: 20%
pest or weed control at 500 g/ha ([15]; Setaria faberi, post-emergence, 240 h, 500 g ai/ha, 0 to 100 scale, 0 no effect, 100 complete control, read-out: Foxtail, Giant plant response rating): 80%
pest or weed control at 250 g/ha [16]: 0%
plant injury at 250 g/ha (rice (Oryza sativa)): 0%
pest or weed control at 250 g/ha [17]: 0%
